By melting point is commonly meant the temperature, or range, at which the solid turns liquid. As usually defined, the inhibition is the drop in the measured response relative to a control, in per cent. The IC50 is the concentration needed to halve the response being measured. Higher therefore signals lower potency.

The test system of data set [1] is fMLF/cytochalasin B (CB)-activated human neutrophils. Briefly: Elastase release in fMLF/CB-activated human neutrophils. Type of data set: cell-based. The following applies: 10 μM compound; cytochalasin B only.
For data set [2] the test system is unchanged. Briefly: Superoxide anion generation (ferricytochrome c reduction) in fMLF/CB-activated human neutrophils. Type of data set: cell-based. To be noted: Neutrophil, fMLF/CB stimulation, mean ± SEM (n = 3–5); for inhibition at 10 µM: 10 μM compound. The protocol:
(§1) The study involving neutrophils was approved by the Institutional Review Board of Chang Gung Memorial Hospital under IRB number: 201902217A3 and was conducted in accordance with the principles of the Declaration of Helsinki. Healthy volunteers aged 20–35 years provided signed informed consents for blood collection. Isolation of neutrophils was done using dextran sedimentation, Ficoll-Hypaque density gradient centrifugation, and hypotonic haemolysis. For the anti-inflammatory studies, neutrophils were suspended in Hank’s balanced salt solution (HBSS) containing 1 mM Ca^2+ at a pH of 7.4[72].
The reduction of ferricytochrome c was utilised to measure the production of SO anions in activated human neutrophils. […] The neutrophils were then stimulated with fMLF (0.1 μM) and CB (1 μg/mL) for 13 min. […] LY294002 was used as a positive control.

Data set [3] shares this test system. The description is as above. The class given is cell-based. The following applies: 10 μM compound; cytochalasin B only.
For data set [4] the test system is unchanged. The experiment in a line: Elastase release in fMLF/CB-activated human neutrophils. Type of data set: cell-based. To be noted: Homo sapiens, Neutrophil, fMLF/CB stimulation, mean ± SEM (n = 3–5); for inhibition at 10 µM: 10 μM compound. Here is the method: as §1
Neutrophils were subsequently stimulated with fMLF (0.1 μM) and CB (0.5 μg/mL) for 13 min. […] LY294002 was used as a positive control.

`CC(C)(C)C(=O)/C=C/c1ccc([N+](=O)[O-])cc1` [Compound 6, (E)-4,4-Dimethyl-1-(4-nitrophenyl)pent-1-en-3-one]: the melting point fell in the range of 125 to 126 °C. The “Induction of elastase release” value in data set [1] is “induced elastase release”. Besides, the inhibition at 10 µM in data set [2] is 23.3 ± 2.3%.

For `O=C(/C=C/c1ccc(Cl)cc1)c1ccc(-c2ccccc2)cc1` [Compound 11a, (E)-1-([1,1′-Biphenyl]-4-yl)-3-(4-chlorophenyl)prop-2-en-1-one], in data set [3], the “Induction of superoxide anion production” value is listed as “an inducer rather than an inhibitor”.

In turn, `COc1ccccc1C(=O)/C=C/c1ccc(Cl)cc1` [Compound 12a, (E)-3-(4-Chlorophenyl)-1-(2-methoxyphenyl)prop-2-en-1-one] registered a melting point of 76 to 78 °C. For the same compound, in data set [2], the inhibition at 10 µM amounted to 93.8 ± 3.02% and the midpoint of inhibition, the IC50, lay at 3.47 ± 0.6 µM. In data set [4], the inhibition at 10 µM was found to be 62.2 ± 5.35% and the IC50 was determined as 7.56 ± 1.05 µM.

`CC(C)(C)Oc1ccc(/C=C/C(=O)c2ccc[nH]2)cc1` [Compound 13, (E)-3-(4-(tert-Butoxy)phenyl)-1-(1H-pyrrol-2-yl)prop-2-en-1-one] registered a melting point of 116.5 to 118.5 °C. For the same compound, the “Induction of elastase release” value in data set [1] is listed as “induced elastase release”. Further, in data set [3], the “Induction of superoxide anion production” value is listed as “induced also SO anion generation”.

Take `CC(C)(C)C(=O)/C=C/c1cc(F)cc(F)c1` [Compound 14, (E)-1-(3,5-Difluorophenyl)-4,4-dimethylpent-1-en-3-one]: the melting point was in the range of 71 to 72 °C. In data set [2], the inhibition at 10 µM is 69.1 ± 6.71% and the IC50 was 6.52 ± 0.57 µM. Further, the inhibition at 10 µM in data set [4] turned out to be 12 ± 3.52%.

For the compound `CC(C)(C)C(=O)/C=C/c1ccc(Cl)cc1Cl` [Compound 15, (E)-1-(2,4-Dichlorophenyl)-4,4-dimethylpent-1-en-3-one], the melting point was 103 to 104 °C. Besides, the “Induction of elastase release” value in data set [1] was “induced elastase release”. For the same compound, in data set [2], the inhibition at 10 µM was 43 ± 2.78%.

Compound `CC(C)(C)C(=O)/C=C/c1ccc(Cl)c(Cl)c1` [Compound 16, (E)-1-(3,4-Dichlorophenyl)-4,4-dimethylpent-1-en-3-one] yielded a melting point of 94 to 96 °C. In data set [2], the inhibition at 10 µM came to 16.5 ± 4.67%. For the same compound, in data set [4], the inhibition at 10 µM was 10.2 ± 0.59%.

For the compound `CC(C)(C)C(=O)/C=C/c1ccc(Cl)c(F)c1` [Compound 17, (E)-1-(4-Chloro-3-fluorophenyl)-4,4-dimethylpent-1-en-3-one], the melting point was in the range of 98.5 to 99.2 °C. Also, the inhibition at 10 µM in data set [2] is 40.6 ± 3.89%. Also, the inhibition at 10 µM in data set [4] is 9.13 ± 1.78%.

`COc1ccccc1C(=O)/C=C/c1ccccc1Cl` [Compound 17a, (E)-3-(2-Chlorophenyl)-1-(2-methoxyphenyl)prop-2-en-1-one] displayed a melting point of 60 to 62 °C. In data set [2], the inhibition at 10 µM was 99.05 ± 0.64% and the midpoint of inhibition, the IC50, lay at 2.95 ± 0.4 µM. In data set [4], the inhibition at 10 µM came out at 75.8 ± 6.19% and inhibition was half-maximal at 5.36 ± 0.67 µM (IC50).

In turn, `Cc1ccc(/C=C/C(=O)C(C)(C)C)cc1F` [Compound 18, (E)-1-(3-Fluoro-4-methylphenyl)-4,4-dimethylpent-1-en-3-one] came in with a melting point of 70 to 71 °C. Further, in data set [2], the inhibition at 10 µM stood at 31.3 ± 4.71%. Moreover, the inhibition at 10 µM in data set [4] is 7.77 ± 0.8%.

`COc1cccc(C(=O)/C=C/c2ccccc2Cl)c1` [Compound 18a, (E)-3-(2-Chlorophenyl)-1-(3-methoxyphenyl)prop-2-en-1-one] had a melting point of 117 °C. The inhibition at 10 µM in data set [2] was determined as 47.6 ± 5.41%. In addition, the inhibition at 10 µM in data set [4] worked out at 31.3 ± 7.29%.

In turn, `COc1ccc(/C=C/C(=O)C(C)(C)C)cc1F` [Compound 19, (E)-1-(3-Fluoro-4-methoxyphenyl)-4,4-dimethylpent-1-en-3-one] yielded a melting point of 84.6 °C. Besides, the inhibition at 10 µM in data set [2] is 2.87 ± 2.8%. In data set [4], the inhibition at 10 µM worked out at 3.9 ± 1.68%.

`COc1ccc(/C=C/C(=O)c2ccccc2C)cc1F` [Compound 20, (E)-3-(3-Fluoro-4-methoxyphenyl)-1-(o-tolyl)prop-2-en-1-one] showed a melting point of 69 to 70 °C. Besides, the inhibition at 10 µM in data set [2] was 49.8 ± 5.82%. In addition, the inhibition at 10 µM in data set [4] is 10.6 ± 2.28%.

`COc1ccc(C(=O)/C=C/c2ccc(OC)c(F)c2)c(OC)c1` [Compound 21, (E)-1-(2,4-Dimethoxyphenyl)-3-(3-fluoro-4-methoxyphenyl)prop-2-en-1-one] came in with a melting point of 85 to 86 °C. For the same compound, the inhibition at 10 µM in data set [2] came to 17.1 ± 3.58%. In addition, the inhibition at 10 µM in data set [4] amounted to 31.6 ± 5.88%.

For `COc1ccccc1C(=O)/C=C/c1cccc(Cl)c1` [Compound 21a, (E)-3-(3-Chlorophenyl)-1-(2-methoxyphenyl)prop-2-en-1-one], the melting point fell in the range of 96 to 98 °C. Moreover, in data set [2], the inhibition at 10 µM came to 89.9 ± 2.38% and the IC50 worked out at 3.79 ± 0.69 µM. Also, in data set [4], the inhibition at 10 µM is 80.4 ± 4.44% and the half-maximal inhibitory concentration (IC50) came out at 5.63 ± 0.51 µM.

`COc1ccc(/C=C/C(=O)C(C)(C)C)c(F)c1F` [Compound 22, (E)-1-(2,3-Difluoro-4-methoxyphenyl)-4,4-dimethylpent-1-en-3-one] returned a melting point of 128 to 129 °C. The inhibition at 10 µM in data set [2] turned out to be 31.4 ± 3.36%. Further, the inhibition at 10 µM in data set [4] is 4.84 ± 2.66%.

For the compound `COc1ccc(C(=O)/C=C/c2cccc(Cl)c2)cc1` [Compound 22a, (E)-3-(3-Chlorophenyl)-1-(4-methoxyphenyl)prop-2-en-1-one], the melting point was 97 to 99 °C. Moreover, in data set [2], the inhibition at 10 µM is 65.2 ± 3.73% and the IC50 worked out at 6.6 ± 0.6 µM. The inhibition at 10 µM in data set [4] stood at 36.1 ± 6.48%.

As to `COc1cc(F)c(/C=C/C(=O)C(C)(C)C)cc1F` [Compound 23, (E)-1-(2,5-Difluoro-4-methoxyphenyl)-4,4-dimethylpent-1-en-3-one], the melting point was in the range of 131 to 132 °C. In addition, in data set [2], the inhibition at 10 µM was determined as 8.1 ± 1.88%. For the same compound, the inhibition at 10 µM in data set [4] worked out at 2.5 ± 1.53%.

Turning to `O=C(/C=C/c1cc(F)cc(F)c1)c1ccc(Cl)cc1` [Compound 23a, (E)-1-(4-Chlorophenyl)-3-(3,5-difluorophenyl)prop-2-en-1-one], the melting point was in the range of 123.6 to 124 °C. Further, in data set [2], the inhibition at 10 µM came to 96.04 ± 0.09% and the IC50 amounted to 2.03 ± 0.27 µM. In data set [4], the inhibition at 10 µM amounted to 83 ± 2.64% and it took 2.32 ± 0.26 µM to reach half-maximal inhibition (IC50).

On to `COc1cccc(C(=O)/C=C/c2cc(F)cc(F)c2)c1` [Compound 24a, (E)-3-(3,5-Difluorophenyl)-1-(3-methoxyphenyl)prop-2-en-1-one], for which the melting point was in the range of 95.2 to 97.2 °C. Besides, in data set [2], the inhibition at 10 µM was found to be 3.12 ± 5.02%. In addition, in data set [4], the inhibition at 10 µM came out at 37.1 ± 7.65%.

As for `COc1ccc(C(=O)/C=C/c2cc(F)cc(F)c2)cc1` [Compound 25a, (E)-3-(3,5-Difluorophenyl)-1-(4-methoxyphenyl)prop-2-en-1-one], the melting point fell in the range of 154.3 to 155 °C. In data set [2], the inhibition at 10 µM was 78.2 ± 9.5% and the half-inhibitory concentration (IC50) stood at 4.7 ± 0.6 µM. Further, in data set [4], the inhibition at 10 µM is 20.9 ± 3.64%.

As for `CC(C)(C)C(=O)/C=C/c1ccc2ccccc2c1` [Compound 26, (E)-4,4-Dimethyl-1-(naphthalen-2-yl)pent-1-en-3-one], the melting point is 117 to 119 °C. The “Induction of elastase release” value in data set [1] is recorded as “induced elastase release”. The inhibition at 10 µM in data set [2] was 10.6 ± 3.34%.

Consider `O=C(/C=C/c1ccc2ccccc2n1)c1ccccc1` [Compound 28, (E)-1-Phenyl-3-(quinolin-2-yl)prop-2-en-1-one], for which the melting point is 118 to 120 °C. Besides, in data set [2], the inhibition at 10 µM turned out to be 106 ± 1.73% and the IC50 was 1.73 ± 0.07 µM. Besides, in data set [4], the inhibition at 10 µM is 99.1 ± 7.32% and the IC50 was found to be 2.17 ± 0.3 µM.

In the case of `CC(C)(C)C(=O)/C=C/c1ccc(-c2ccccc2)cc1` [Compound 29, (E)-1-([1,1′-Biphenyl]-4-yl)-4,4-dimethylpent-1-en-3-one], the melting point lay in the range of 128 to 130 °C. In addition, the “Induction of elastase release” value in data set [1] is on record as “induced elastase release”. Moreover, the inhibition at 10 µM in data set [2] worked out at 2.23 ± 0.94%.

`CCOc1ccccc1C(=O)/C=C/c1ccc(-c2ccccc2)cc1` [Compound 30, (E)-3-([1,1′-Biphenyl]-4-yl)-1-(2-ethoxyphenyl)prop-2-en-1-one] gave a melting point of 98 to 99 °C. The inhibition at 10 µM in data set [2] amounted to 8.69 ± 2.43%. The inhibition at 10 µM in data set [4] is 15.8 ± 2.57%.

The record behind these values is publication PMC11413964, “Discovery of 1,3-disubstituted prop-2-en-1-one derivatives as inhibitors of neutrophilic inflammation via modulation of MAPK and Akt pathways” (Journal of Enzyme Inhibition and Medicinal Chemistry, 2024).
